Experimental data from PMC9019904, “AD Informer Set: Chemical tools to facilitate Alzheimer's disease drug discovery” (Alzheimer's & Dementia : Translational Research & Clinical …, 2022).
In brackets after ≈: the same amount, converted by molar mass.

Columns and labels:
[1] = tested on: BV2 (mouse microglia) cell line; test: pHrodo-myelin phagocytosis/cell viability high content imaging assay: phagocytosis signal; type: cell-based
Outline: (§1)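 Simultaneous phagocytosis/viability imaging at approximately 22 h after adding pHrodo-myelin. Rising intensity flagged early apoptosis and falling intensity later apoptosis.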

[2] = tested on: HMC3 (human microglia) cell line; test: as above; type: cell-based
Outline: as §1

[3] = Kinetic solubility in aqueous buffer pH 7.4 by total chemiluminescent nitrogen determination (Analiza); details: aqueous buffer, pH 7.4, aqueous buffer, kinetic from dmso stock
[4] = tested on: BV2 (mouse microglia) cell line; test: pHrodo-myelin phagocytosis/cell viability high content imaging assay: viability (cell count, nuclear area, nuclear intensity)
Outline: (§2)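 Cells adhered overnight, then were exposed to compounds at a single 10 μM for 48 h in total, with pHrodo-myelin added for the last 20 h. High-content imaging gave cell count per well as the main viability measure plus mean nuclear intensity per cell. Duplicate wells were averaged and expressed as % of untreated control.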

[5] = tested on: HMC3 (human microglia) cell line; test: as above
Outline: as §2

[6] = BV2, 10 μM, cell count <70% control
[7] = HMC3, 10 μM, cell count <70% control

| Structure (SMILES) | Inhibition of mouse microglial phagocytosis at 10 μM (<70% control) ([1]; BV2, 10 μM) | Inhibition of human microglial phagocytosis at 10 μM (<70% control) ([2]; HMC3, 10 μM) | solubility kinetic [3] | Mouse microglial cytotoxicity at 10 μM (<70% control) [4, 6] | Human microglial cytotoxicity at 10 μM (<70% control) [5, 7] | Inhibition of mouse microglial phagocytosis at 10 μM (<70% control) ([1]; 10 μM, BV2) | Inhibition of human microglial phagocytosis at 10 μM (<70% control) ([2]; 10 μM, HMC3) | Mouse microglial cytotoxicity at 10 μM (<70% control) ([4]; 10 μM, BV2) | Human microglial cytotoxicity at 10 μM (<70% control) ([5]; 10 μM, HMC3) | Mouse microglial cytotoxicity at 10 μM (<70% control) ([4]; BV2, 10 μM) | Human microglial cytotoxicity at 10 μM (<70% control) ([5]; HMC3, 10 μM) | Stimulation of mouse microglial phagocytosis at 10 μM (>150% control) ([1]; BV2, 10 μM) |
| --- | --- | --- | --- | --- | --- | --- | --- | --- | --- | --- | --- | --- |
| Cc1cc(OCc2nnc(SC3CCCC3)n2-c2cccnc2)ccc1-c1ccc(S(C)(=O)=O)cc1 [NMS-873] | Y (The compound was found to inhibit phagocytosis (response threshold: <70% control) when murine immortalized microglial cells were dosed at 10 μM (Y: yes)) | Y (The compound was found to inhibit phagocytosis (response threshold: <70% control) when human immortalized microglial cells were dosed at 10 μM (Y: yes)) | 3.8 µM (≈ 1.98 µg/mL) | Y (The compound was found to be cytotoxic (cell count threshold: <70% control) when murine immortalized microglial cells were dosed at 10 μM (Y: yes)) | Y (The compound was found to be cytotoxic (cell count threshold: <70% control) when human immortalized microglial cells were dosed at 10 μM (Y: yes)) |  |  |  |  |  |  |  |
| CC1(COc2ccc3c(c2)ncn3-c2ccc3cccc(N4CCC(N)CC4)c3n2)COC1 [Crenolanib] |  |  | 115 µM (≈ 51.1 µg/mL) |  |  | Y (The compound was found to inhibit phagocytosis (response threshold: <70% control) when murine immortalized microglial cells were dosed at 10 μM (Y: yes)) | Y (The compound was found to inhibit phagocytosis (response threshold: <70% control) when human immortalized microglial cells were dosed at 10 μM (Y: yes)) | Y (The compound was found to be cytotoxic (cell count threshold: <70% control) when murine immortalized microglial cells were dosed at 10 μM (Y: yes)) | Y (The compound was found to be cytotoxic (cell count threshold: <70% control) when human immortalized microglial cells were dosed at 10 μM (Y: yes)) |  |  |  |
| CN(C)CCCOc1c(Br)cc(/C=C/C(=O)NCCCOc2c(Br)cc(CCN(C)C)cc2Br)cc1Br [Psammaplysene A] |  |  | 125 µM (≈ 96.4 µg/mL) |  |  | Y (The compound was found to inhibit phagocytosis (response threshold: <70% control) when murine immortalized microglial cells were dosed at 10 μM (Y: yes)) | Y (The compound was found to inhibit phagocytosis (response threshold: <70% control) when human immortalized microglial cells were dosed at 10 μM (Y: yes)) | Y (The compound was found to be cytotoxic (cell count threshold: <70% control) when murine immortalized microglial cells were dosed at 10 μM (Y: yes)) | Y (The compound was found to be cytotoxic (cell count threshold: <70% control) when human immortalized microglial cells were dosed at 10 μM (Y: yes)) |  |  |  |
| CSc1ccc2c(c1)c(CCN)c(C)n2Cc1ccc(Cl)cc1Cl.Cl [K149] |  |  | 5.7 µM |  |  | Y (The compound was found to inhibit phagocytosis (response threshold: <70% control) when murine immortalized microglial cells were dosed at 10 μM (Y: yes)) | Y (The compound was found to inhibit phagocytosis (response threshold: <70% control) when human immortalized microglial cells were dosed at 10 μM (Y: yes)) | Y (The compound was found to be cytotoxic (cell count threshold: <70% control) when murine immortalized microglial cells were dosed at 10 μM (Y: yes)) | Y (The compound was found to be cytotoxic (cell count threshold: <70% control) when human immortalized microglial cells were dosed at 10 μM (Y: yes)) |  |  |  |
| COc1cccc2c(NCc3ccccc3)nc(-n3c(N)nc4ccccc43)nc12 [ML 240] | Y (The compound was found to inhibit phagocytosis (response threshold: <70% control) when murine immortalized microglial cells were dosed at 10 μM (Y: yes)) | Y (The compound was found to inhibit phagocytosis (response threshold: <70% control) when human immortalized microglial cells were dosed at 10 μM (Y: yes)) | < 0.4 µM | Y (The compound was found to be cytotoxic (cell count threshold: <70% control) when murine immortalized microglial cells were dosed at 10 μM (Y: yes)) | Y (The compound was found to be cytotoxic (cell count threshold: <70% control) when human immortalized microglial cells were dosed at 10 μM (Y: yes)) |  |  |  |  |  |  |  |
| CCN1CCN(Cc2ccc(NC(=O)c3ccc(C)c(NC(=O)c4cncc(-c5cccs5)c4)c3)cc2C(F)(F)F)CC1 [ALW-II-41-27] | Y (The compound was found to inhibit phagocytosis (response threshold: <70% control) when murine immortalized microglial cells were dosed at 10 μM (Y: yes)) | Y (The compound was found to inhibit phagocytosis (response threshold: <70% control) when human immortalized microglial cells were dosed at 10 μM (Y: yes)) | 3.7 µM (≈ 2.25 µg/mL) |  |  |  |  |  |  | Y (The compound was found to be cytotoxic (cell count threshold: <70% control) when murine immortalized microglial cells were dosed at 10 μM (Y: yes)) | Y (The compound was found to be cytotoxic (cell count threshold: <70% control) when human immortalized microglial cells were dosed at 10 μM (Y: yes)) |  |
| C=CC(=O)Nc1cc2c(Nc3ccc(F)c(Cl)c3)ncnc2cc1OCCCN1CCOCC1 [Canertinib] | Y (The compound was found to inhibit phagocytosis (response threshold: <70% control) when murine immortalized microglial cells were dosed at 10 μM (Y: yes)) | Y (The compound was found to inhibit phagocytosis (response threshold: <70% control) when human immortalized microglial cells were dosed at 10 μM (Y: yes)) | 11 µM (≈ 5.35 µg/mL) |  |  |  |  |  |  | Y (The compound was found to be cytotoxic (cell count threshold: <70% control) when murine immortalized microglial cells were dosed at 10 μM (Y: yes)) | Y (The compound was found to be cytotoxic (cell count threshold: <70% control) when human immortalized microglial cells were dosed at 10 μM (Y: yes)) |  |
| Cc1cc(Nc2ncc(Cl)c(Nc3ccccc3S(=O)(=O)C(C)C)n2)c(OC(C)C)cc1C1CCNCC1 [Ceritinib] | Y (The compound was found to inhibit phagocytosis (response threshold: <70% control) when murine immortalized microglial cells were dosed at 10 μM (Y: yes)) | Y (The compound was found to inhibit phagocytosis (response threshold: <70% control) when human immortalized microglial cells were dosed at 10 μM (Y: yes)) | 25.1 µM (≈ 14 µg/mL) |  |  |  |  |  |  | Y (The compound was found to be cytotoxic (cell count threshold: <70% control) when murine immortalized microglial cells were dosed at 10 μM (Y: yes)) | Y (The compound was found to be cytotoxic (cell count threshold: <70% control) when human immortalized microglial cells were dosed at 10 μM (Y: yes)) |  |
| Fc1ccc(C(CCCNCC2CCc3[nH]c4ccc(F)cc4c3C2)c2ccc(F)cc2)cc1 (centres unmarked) [MSC1094308] | Y (The compound was found to inhibit phagocytosis (response threshold: <70% control) when murine immortalized microglial cells were dosed at 10 μM (Y: yes)) | Y (The compound was found to inhibit phagocytosis (response threshold: <70% control) when human immortalized microglial cells were dosed at 10 μM (Y: yes)) | 3.9 µM (≈ 1.8 µg/mL) | Y (The compound was found to be cytotoxic (cell count threshold: <70% control) when murine immortalized microglial cells were dosed at 10 μM (Y: yes)) | Y (The compound was found to be cytotoxic (cell count threshold: <70% control) when human immortalized microglial cells were dosed at 10 μM (Y: yes)) |  |  |  |  |  |  |  |
| O=C1C=C(NCCc2cc(Br)c(O)c(Br)c2)C(=O)c2ncccc21 [NSC668394] |  | Y (The compound was found to inhibit phagocytosis (response threshold: <70% control) when human immortalized microglial cells were dosed at 10 μM (Y: yes)) | 18.4 µM (≈ 8.32 µg/mL) |  |  |  |  |  |  | Y (The compound was found to be cytotoxic (cell count threshold: <70% control) when murine immortalized microglial cells were dosed at 10 μM (Y: yes)) | Y (The compound was found to be cytotoxic (cell count threshold: <70% control) when human immortalized microglial cells were dosed at 10 μM (Y: yes)) | Y (The compound was found to stimulate phagocytosis (response threshold: >150% control) when murine immortalized microglial cells were dosed at 10 μM (Y: yes)) |
